According to publication PMC9394284, “Discovery of Novel Dual Adenosine A2A and A1 Receptor Antagonists with 1H-Pyrazolo[3,4-d]pyrimidin-6-amine Core Scaffold as Anti-Parkinson’s Disease Agents” (Pharmaceuticals, 2022):
Read-outs that look alike come from different tables or passages of the source.

Assays:
[1] = maximum tolerated dose, single oral administration, dog; details: both sexes, in vivo, single oral administration, male and female beagle dogs
Procedure: (§1) Rat and dog MTD studies were performed at Frontage Laboratories Inc following testing facility’s SOPs. All procedures described were reviewed and approved by the Institutional Animal Care and Use Committee (IACUC) at Frontage Laboratories Inc.
(§2) For dog MTD study, male and female beagle dogs (Canis familiaris) of 1.3 to 1.4 years of age were from Frontage Laboratories’ test facility stock colony, originally procured from Marshall BioResources (North Rose, NY, USA). The health status of the animals was reviewed by a staff veterinarian. Data collected on animals prior to release to study were maintained as testing facility records. Same dogs were used for each dose event. Animals received a single dose of 11o in 0.5% methyl cellulose via oral gavage starting from 50 mg/kg dose level in 5 mL/kg dose volume. Subsequent doses occurred 3 or 4 days following the previous dose and were increased based on findings from the previous dosing(s). The procedure continued until four dosing events occurred. Animals were fasted overnight prior to each dose administration with food provided approximately 4 h post-dose. Animals were observed once in the morning and once in the afternoon throughout the study for clinical observations. Body weights were measured on the day prior to dose administration. Data were collected and reported electronically using Provantis^TM (Instem LSS Ltd., Staffordshire, UK).

[2] = test system: beagle dogs; test: as above; details: in vivo, po
Procedure: as §1, §2

[3] = pharmacokinetics and brain/plasma ratio in mouse brain; type: in vivo, Crl:CD-1 mice; details: male; for AUC(0-t) / Cmax / Tmax / half-life: mouse brain
Procedure: Male Crl:CD-1 mice of 9~10 weeks of age were purchased from Charles River Laboratories, USA and maintained at standard food and water ad libitum in temperature-controlled room with 12 h on-off light cycle before the experiment. All procedures described were reviewed and approved by the Institutional Animal Care and Use Committee (IACUC) at Frontage Laboratories Inc. For PO dosing, mice were given 11o dissolved in DMSO: PEG400 (1:3, v:v) via gavage. For IV dosing, 11o solubilized in DMSO: PEG400: saline (1:3:6, v:v) were injected into tail veins at dose volume of 1 mL/kg. For IN dosing, 11o solubilized in DMSO and 25 μL of the appropriate dosing solution was placed near the nares to allow animal to inhale the dose. Three mice were sampled from each group for each blood and brain collection time point. Time points are 0.5, 1, 2, 4, 8, 24 h for PO and IN dosing and 0.083, 1, 2, 4, 8 and 24 h for IV dosing. Mice were euthanized by terminal retro-orbital blood collection under isoflurane anesthesia, followed by opening of the thoracic cavity per facility SOPs. A target volume of 1 mL was collected into tubes containing K3EDTA anti-coagulant, inverted several times and held on wet ice until centrifuged under refrigeration (set at 5 °C for 10 min at 2000× g). Resulting plasma were stored in a freezer set to maintain −70 °C until analyzed for 11o concentration. Brain was removed from each animal and weighed following termination, snap frozen and stored until later use. Plasma and brain PK analysis was conducted using WinNolin Version 6.2.1 (Pharsight, Mountain View, CA, USA), operating as a validated software system. Noncompartmental analysis was conducted using the extravascular administration model for oral dosing and the IV bolus model for IV dosing. The peak plasma and brain concentration, time to achieve peak plasma concentration, half-life, and area under the plasma concentration-time curve (Cmax, Tmax, T1/2 and AUC) were calculated from mean plasma concentrations for each sampling time/dose group for 11o. Nominal blood collection times were used for calculation of PK parameters. Dose proportionality was assessed, and bioavailability was calculated for PO dosing.

[4] = target: A2A adenosine receptor (Homo sapiens, UniProt P29274); test: cyclic AMP HTRF functional assay, HEK-293 (A2A); type: cell-based; details: HEK-293 cells
Procedure: Next, the functional activity of 11o against A1 and A2A adenosine receptors was evaluated using c-AMP assay in CHO-K1 (A1) and HEK-293 (A2A) cells.
For functional studies, A1 and A2A receptor cyclic AMP HTRF (homogeneous time resolved fluorescence) assay was performed at EuroscreenFast (Charleroi, Belgium) using CHO-K1 (A1) and HEK293 (A2A) stable cell line with CPA (A1) and NECA (A2A) as reference agonist and DPCPX (A1) and ZM241385 (A2A) as reference antagonist compound.

[5] = Crl:CD-1, inhaled or intranasal, 1 mg/kg IN
[6] = Crl:CD-1, inhaled or intranasal, 3 mg/kg IN
[7] = Crl:CD-1, inhaled or intranasal, 10 mg/kg IN

A2A adenosine receptor, sequence (P29274 whole entry): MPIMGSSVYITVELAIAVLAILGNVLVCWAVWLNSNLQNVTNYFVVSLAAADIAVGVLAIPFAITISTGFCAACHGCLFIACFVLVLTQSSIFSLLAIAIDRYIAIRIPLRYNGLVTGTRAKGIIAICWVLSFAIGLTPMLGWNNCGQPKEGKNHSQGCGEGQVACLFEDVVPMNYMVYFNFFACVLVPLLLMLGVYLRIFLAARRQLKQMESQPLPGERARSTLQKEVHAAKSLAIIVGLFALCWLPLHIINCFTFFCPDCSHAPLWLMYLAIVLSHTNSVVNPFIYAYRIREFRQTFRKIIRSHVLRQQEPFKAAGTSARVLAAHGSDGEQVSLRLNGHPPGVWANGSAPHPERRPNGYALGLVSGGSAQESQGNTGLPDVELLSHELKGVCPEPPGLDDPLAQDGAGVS

## Cc1cc(Cn2ncc3c(-c4cccc(C#N)c4F)nc(N)nc32)ccc1N [11o, 3-(6-Amino-1-(4-amino-3-methylbenzyl)-1H-pyrazolo[3,4-d]pyrimidin-4-yl)-2-fluorobenzonitrile]
[1]
  MTD: > 400 mg/kg
[2]
  body weight change, female dogs: −6.5%
  body weight change, male dogs: −5.7%
[3]; Crl:CD-1, brain/plasma, other: intranasal (IN), placed near the nares, mouse, IN 1, 3 and 10 mg/kg, read-out: B/P ratio, IN dosing groups
  Kp: 0.0698 to 0.183
[3]; Crl:CD-1, brain/plasma, mouse, PO 1, 3 and 10 mg/kg, read-out: B/P ratio, PO dosing groups
  Kp: 0.0242 to 0.167
[3]; [5]
  AUC(0-t): 5.23 ng·h/mL
  Cmax: 9.63 ng/mL
  Tmax: 0.5 h
[3]; [6]
  AUC(0-t): 14.2 ng·h/mL
  Cmax: 15.9 ng/mL
  Tmax: 0.5 h
[3]; [7]
  AUC(0-t): 81.3 ng·h/mL
  Cmax: 38.2 ng/mL
  Tmax: 0.5 h
  half-life: 3.74 h
[3]; Crl:CD-1, mouse, other: IN (intranasal, placed near the nares to inhale), 10 mg/kg IN, Brain AUClast/Plasma AUClast, read-out: B/P Ratio
  Kp: 0.183
[3]; Crl:CD-1, mouse, other: IN dosing, solution placed near the nares to inhale, 1 mg/kg IN, Brain AUClast/Plasma AUClast, read-out: B/P Ratio
  Kp: 0.0698
[3]; Crl:CD-1, mouse, other: IN dosing, solution placed near the nares to inhale, 3 mg/kg IN, Brain AUClast/Plasma AUClast, read-out: B/P Ratio
  Kp: 0.0776
[3]; Crl:CD-1, mouse, 1 mg/kg IV, Brain AUClast/Plasma AUClast, read-out: B/P Ratio
  Kp: 0.741
[3]; Crl:CD-1, mouse, 1 mg/kg PO, Brain AUClast/Plasma AUClast, read-out: B/P Ratio
  Kp: 0.0242
[3]; Crl:CD-1, mouse, 3 mg/kg PO, Brain AUClast/Plasma AUClast, read-out: B/P Ratio
  Kp: 0.0977
[3]; Crl:CD-1, mouse, 10 mg/kg PO, Brain AUClast/Plasma AUClast, read-out: B/P Ratio
  Kp: 0.167
[3]; Crl:CD-1, 1 mg/kg IV
  AUC(0-t): 246 ng·h/mL
  Cmax: 410 ng/mL
  Tmax: 0.083 h
[3]; Crl:CD-1, 1 mg/kg PO
  AUC(0-t): 4.26 ng·h/mL
  Cmax: 5.58 ng/mL
  Tmax: 2 h
[3]; Crl:CD-1, 3 mg/kg PO
  AUC(0-t): 56.4 ng·h/mL
  Cmax: 12.8 ng/mL
  Tmax: 0.5 h
  half-life: 3.23 h
[3]; Crl:CD-1, 10 mg/kg PO
  AUC(0-t): 375 ng·h/mL
  Cmax: 48.1 ng/mL
  Tmax: 2 h
  half-life: 7.71 h
[4]
  functional activity at A2A receptor: full antagonism
[4]; read-out: IC50, A2A functional antagonism (c-AMP)
  IC50: 136 nM
